Data as given in the NIST ThermoML archive (doi:10.1016/j.jct.2013.09.043).

Assay: xn = mol fraction of the nth substance listed
Settings: 101 kPa, Liquid; for viscosity: Capillary tube (Ostwald / Ubbelohde) method; for mass density: Vibrating tube method

NC=O [formamide] + CC(C)O
Settings | mass density, 298.15 K [kg/m3] | mass density, 303.15 K [kg/m3] | mass density, 308.15 K [kg/m3] | mass density, 313.15 K [kg/m3] | viscosity, 298.15 K [mPa·s] | viscosity, 303.15 K [mPa·s] | viscosity, 308.15 K [mPa·s] | viscosity, 313.15 K [mPa·s]
x1 = 0.0831 | 797.37 | 793.08 | 788.56 | 783.84 | 2.167 | 1.867 | 1.623 | 1.399
x1 = 0.1563 | 813.03 | 808.66 | 803.98 | 799.2 | 2.254 | 1.948 | 1.688 | 1.464
x1 = 0.2377 | 831.8 | 827.33 | 822.51 | 817.62 | 2.382 | 2.064 | 1.791 | 1.567
x1 = 0.3518 | 860.85 | 856.24 | 851.26 | 846.25 | 2.585 | 2.259 | 1.974 | 1.745
x1 = 0.4403 | 885.89 | 881.14 | 876.01 | 871.03 | 2.739 | 2.409 | 2.115 | 1.884
x1 = 0.5371 | 916.34 | 911.48 | 906.38 | 901.3 | 2.888 | 2.556 | 2.256 | 2.026
x1 = 0.6352 | 950.91 | 946.08 | 940.93 | 935.92 | 3.015 | 2.684 | 2.371 | 2.144
x1 = 0.7388 | 992.47 | 987.75 | 982.64 | 977.69 | 3.127 | 2.789 | 2.464 | 2.233
x1 = 0.8497 | 1043.91 | 1039.54 | 1034.66 | 1029.87 | 3.218 | 2.878 | 2.541 | 2.312
x1 = 0.94 | 1092.69 | 1088.45 | 1083.96 | 1079.51 | 3.277 | 2.939 | 2.601 | 2.377
x1 = 1 | 1129 | 1125.1 | 1120.98 | 1116.85 | 3.305 | 2.975 | 2.64 | 2.42

NC=O [formamide] + CCC(C)O
Settings | mass density, 298.15 K [kg/m3] | mass density, 303.15 K [kg/m3] | mass density, 308.15 K [kg/m3] | mass density, 313.15 K [kg/m3] | viscosity, 298.15 K [mPa·s] | viscosity, 303.15 K [mPa·s] | viscosity, 308.15 K [mPa·s] | viscosity, 313.15 K [mPa·s]
x1 = 0.0871 | 815.72 | 811.44 | 807.59 | 802.69 | 3.039 | 2.541 | 2.137 | 1.81
x1 = 0.1597 | 827.26 | 822.99 | 819.07 | 814.17 | 3.048 | 2.561 | 2.158 | 1.836
x1 = 0.2462 | 842.51 | 838.24 | 834.28 | 829.39 | 3.074 | 2.601 | 2.206 | 1.893
x1 = 0.3993 | 874.46 | 870.19 | 866.14 | 861.25 | 3.178 | 2.729 | 2.337 | 2.037
x1 = 0.4397 | 884.15 | 879.88 | 875.81 | 870.92 | 3.207 | 2.763 | 2.372 | 2.078
x1 = 0.5567 | 916.06 | 911.78 | 907.68 | 902.82 | 3.279 | 2.855 | 2.477 | 2.195
x1 = 0.6516 | 947.04 | 942.76 | 938.6 | 933.86 | 3.318 | 2.911 | 2.54 | 2.272
x1 = 0.7376 | 980.23 | 975.94 | 971.72 | 967.08 | 3.336 | 2.945 | 2.582 | 2.324
x1 = 0.8512 | 1033.92 | 1029.63 | 1025.39 | 1020.93 | 3.34 | 2.973 | 2.617 | 2.371
x1 = 0.9309 | 1080.54 | 1076.36 | 1072.19 | 1067.81 | 3.329 | 2.98 | 2.631 | 2.398
x1 = 1 | 1129 | 1125.1 | 1120.98 | 1116.85 | 3.305 | 2.975 | 2.64 | 2.42

CCCC(C)O (centres undefined) [pentan-2-ol] + NC=O
Settings | mass density, 298.15 K [kg/m3] | mass density, 303.15 K [kg/m3] | mass density, 308.15 K [kg/m3] | mass density, 313.15 K [kg/m3] | viscosity, 298.15 K [mPa·s] | viscosity, 303.15 K [mPa·s] | viscosity, 308.15 K [mPa·s] | viscosity, 313.15 K [mPa·s]
x2 = 0 | 805.05 | 800.88 | 796.89 | 792.62 | 3.423 | 2.834 | 2.348 | 1.979
x2 = 0.0823 | 814.65 | 810.45 | 806.51 | 802.09 | 3.386 | 2.811 | 2.328 | 1.959
x2 = 0.1639 | 825.39 | 821.13 | 817.19 | 812.73 | 3.363 | 2.801 | 2.329 | 1.973
x2 = 0.2393 | 836.58 | 832.27 | 828.29 | 823.79 | 3.353 | 2.811 | 2.348 | 2.004
x2 = 0.3541 | 856.48 | 852.09 | 848.01 | 843.52 | 3.379 | 2.864 | 2.409 | 2.075
x2 = 0.4444 | 875.19 | 870.77 | 866.59 | 862.13 | 3.402 | 2.911 | 2.468 | 2.144
x2 = 0.5612 | 904.57 | 900.13 | 895.87 | 891.4 | 3.422 | 2.964 | 2.544 | 2.237
x2 = 0.6497 | 932.05 | 927.6 | 923.33 | 918.86 | 3.431 | 2.989 | 2.587 | 2.298
x2 = 0.7431 | 967.72 | 963.24 | 959 | 954.54 | 3.42 | 3.003 | 2.615 | 2.343
x2 = 0.8502 | 1020.4 | 1016.03 | 1011.79 | 1007.32 | 3.384 | 3.001 | 2.628 | 2.38
x2 = 0.9398 | 1079.03 | 1074.66 | 1070.45 | 1066.08 | 3.341 | 2.988 | 2.635 | 2.403
